The record followed here is patent US11542316B2, “S-Arrestin peptides and therapeutic uses thereof” (APITOPE INTERNATIONAL NV, priority 2017, dated 2023).

This experiment has as its system LN cells and splenocytes upon SAg or peptide restimulation. Kind of experiment: Ex vivo tolerization experiment, DR3tg mice. The class given is in vivo. The conditions noted are these: IFN-γ; for reduction in response to HIP-115 and HIP-115NE3 peptides: highest concentrations of probing peptide. How it is done: FIG. 7: Ex vivo tolerisation protocol. Mice are injected subcutaneously in the flank with 0.1 μg/ml, 1 μg/ml and 10 μg/ml peptide on days −15, −13 and −11, followed by 3 injections of 100 μg/ml on days −8, −6 and −4 (escalating dose regime). On day 0, mice are immunized subcutaneously at the base of the tail with SAg/CFA or peptide/CFA. Mice are sacrificed 10 days after immunization to measure proliferation of LN cells and splenocytes upon SAg or peptide restimulation. LN, lymph nodes.
FIG. 8: Ex vivo tolerance induction by HIP-115NE3-KKK apitope. DR3 mice are injected subcutaneously in the flank with 0.1 μg/ml, 1 μg/ml and 10 μg/ml HIP-115NE3-KKK on days −15, −13 and −11, followed by 3 injections of 100 μg/ml on days −8, −6 and −4 (escalating dose regime). On day 0, mice are immunized subcutaneously at the base of the tail with HIP-115/CFA. Mice are sacrificed 10 days after immunization to measure proliferation of LN cells and splenocytes upon SAg or peptide restimulation. Data represent mean±SEM of the concentration or OD values for the PBS-treated mice (black lines) and peptide-treated mice (color lines). Two-way ANOVA was used to measure overall treatment effects on T cell activation and p-values are written in the graphs. Bonferonni post-hoc testing was used and significant differences are indicated in the graphs (* p<0.05; **** p<0.0001). LN, lymph nodes. (A) Tolerisation against SAg in LN. IFN-γ production expressed as IFN-γ concentration (pg/ml). (B) Tolerisation against SAg in spleen. IFN-γ production expressed as IFN-γ concentration (pg/ml). (C) Tolerisation against HIP-115 and HIP-115NE3 peptides in LN. IFN-γ production expressed as OD values. (D) Tolerisation against HIP-115 and HIP-115NE3 peptides in spleen. IFN-γ production expressed as OD values.
FIG. 9: Ex vivo tolerance induction by HIP-11B apitope. DR3 mice are injected subcutaneously in the flank with 0.1 μg/ml, 1 μg/ml and 10 μg/ml HIP-11B on days −15, −13 and −11, followed by 3 injections of 100 μg/ml on days −8, −6 and −4 (escalating dose regime). On day 0, mice are immunized subcutaneously at the base of the tail with HIP-11B/CFA. Mice are sacrificed 10 days after immunization to measure proliferation of LN cells and splenocytes upon SAg or peptide restimulation. Data represent mean±SEM of the concentration values for the PBS-treated mice (black lines) and peptide-treated mice (color lines). IFN-γ production expressed as IFN-γ concentration (pg/ml). Two-way ANOVA was used to measure overall treatment effects on T cell activation and p-values are written in the graphs. Bonferonni post-hoc testing was used and significant differences are indicated in the graphs (* p<0.05; **** p<0.0001). LN, lymph nodes. (A) Tolerisation against SAg in LN. (B) Tolerisation against SAg in spleen. (C) Tolerisation against HIP-11B peptide in LN. (D) Tolerisation against HIP-11B peptide in spleen.
FIG. 10: Ex vivo tolerance induction by HIP-24DG apitope. DR3 mice are injected subcutaneously in the flank with 0.1 μg/ml, 1 μg/ml and 10 μg/ml HIP-24DG on days −15, −13 and −11, followed by 3 injections of 100 μg/ml on days −8, −6 and −4 (escalating dose regime). On day 0, mice are immunized subcutaneously at the base of the tail with HIP-24DG+HIP-24HM/CFA. Mice are sacrificed 10 days after immunization to measure proliferation of LN cells and splenocytes upon SAg or peptide restimulation. Data represent mean±SEM of the OD values for the PBS-treated mice (black lines) and peptide-treated mice (color lines). IFN-γ production expressed as OD values. LN, lymph nodes. Two-way ANOVA was used to measure overall treatment effects on T cell activation and p-values are written in the graphs. Bonferonni post-hoc testing was used and significant differences are indicated in the graphs (* p<0.05; ** p<0.01; *** p<0.001: **** p<0.0001). LN, lymph nodes. (A) Tolerisation against SAg in LN. (B) Tolerisation against HIP-24DG in LN. (C) Tolerisation against HIP-24HM2 peptide in LN. […]

Ends that are not written are not given here.

Consider “LTKTLTLLPLLANNRERR-NH2 [HIP-24DG, LTKTLTLLPLLANNRERR]”, for which, for the setting “LN, DR3 mice”, the “tolerization against the peptide itself / peptides of the same region” value is on record as “some tolerization”. Also, under “LN, DR3 mice, escalating dose regime s.c.”, the “tolerization against SAg” value is “tolerization induced”.
KKKLTFRRDLYFSRVQVYKKK-NH2 [HIP-17J-KKK]: the “tolerization against SAg” value (spleen, DR3 mice, escalating dose regime s.c.) is recorded as “tolerization induced”.
Regarding “KKKVIFKKISRDKSVTIYLGKKK-NH2 [HIP-115NE3-KKK]”, the “reduction in response to SAg” value (LN and spleen, highest dose of SAg used for probing, escalating dose regime s.c.) turned out to be 70%. Further, the “reduction in response to HIP-115 and HIP-115NE3 peptides” value reads like this: (LN) 55%; (spleen) 65%.
